Test results reported in PMC5356633, “Arctigenin functions as a selective agonist of estrogen receptor β to restrict mTORC1 activation and consequent Th17 differentiation” (Oncotarget, 2016).

Molecular target: T1, ERβ (estrogen receptor β) (Homo sapiens, UniProt Q92731)
T1 construct: gene ESR2; full-length ERβ
Assay: fluorescence polarization competition binding (PolarScreen ERβ Competitor Assay, Fluormone Tracer)

T1 sequence (Q92731 whole entry): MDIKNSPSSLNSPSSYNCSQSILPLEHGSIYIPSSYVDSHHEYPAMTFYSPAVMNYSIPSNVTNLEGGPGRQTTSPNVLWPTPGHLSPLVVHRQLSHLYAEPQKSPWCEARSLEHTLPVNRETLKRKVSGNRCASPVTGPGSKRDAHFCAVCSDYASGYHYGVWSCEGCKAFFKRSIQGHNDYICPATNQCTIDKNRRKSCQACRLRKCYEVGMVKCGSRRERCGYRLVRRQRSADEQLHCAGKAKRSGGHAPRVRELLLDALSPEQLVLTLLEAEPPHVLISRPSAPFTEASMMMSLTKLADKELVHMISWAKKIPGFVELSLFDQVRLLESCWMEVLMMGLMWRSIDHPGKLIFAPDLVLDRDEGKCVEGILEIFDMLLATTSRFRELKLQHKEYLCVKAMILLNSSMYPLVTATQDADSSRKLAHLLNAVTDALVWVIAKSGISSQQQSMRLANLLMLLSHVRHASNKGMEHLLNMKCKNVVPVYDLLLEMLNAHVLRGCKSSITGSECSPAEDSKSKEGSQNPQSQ

Compound `COc1cc(C[C@H]2C(=O)OC[C@@H]2Cc2ccc(OC)c(OC)c2)ccc1O` [ARCG, arctigenin] has an IC50 of 3.29 µM.
